One series has as its target CXCR4 chemokine receptor (Homo sapiens, UniProt P61073). As to the kind of experiment: Competition with CXCR4 binding antibodies, flow cytometry. The conditions noted are these: competition with anti-human CXCR4 mAb (44708.111), serial dilutions of compound added simultaneously with antibody. As for the experimental part: (§1) The antibodies used in this study were: unconjugated mouse anti-human CXCR4 mAbs clones 44708.111, 44716.111, PE-conjugated clone 44717.111 and 12G5 (R&D Systems Europe, Abingdon, UK). Cells were preincubated with 20 μM of the compound for 30 mins. Thereafter cells were incubated with each of the mAbs for a further 60 mins. In the case of the direct binding assay, serial dilutions of the compound were added simultaneously with the antibody (44708.111). Cells were then incubated with a secondary fluorescein isothiocyanate-conjugated anti-mouse antibody (IgG-FITC) (Serotec, UK) for 30 mins. Cell samples were analysed by a FACScan flow cytometer (BD Biosciences Europe. Erembodegem, Belgium). Data were acquired and analysed with CellQuest software (Becton Dickinson) on an Apple Macintosh computer. Relative percentage inhibitions were calculated from the mean fluorescent intensity of the whole cell population and relative inhibitory concentration (IC) values were obtained by non linear regression analyses using the Graphpad prism software.
A general note: Flow cytometry measures light scatter and fluorescence of single cells or particles in a stream.

Another series concerns HIV-2 (ROD). Briefly: Anti-HIV activity in MT-4 cells, tetrazolium viability, HIV-2. The format is cell-based. The conditions noted are these: Human immunodeficiency virus 2, MT4, 120 h, 5 d, read-out: av IC50. The text has this:
(§2) Anti-HIV activity and cytoxicity measurements in MT-4 cells were based on viability of cells that had been infected or not infected with HIV-1 (IIIB) and HIV-2 (ROD) ×4 strainsexposed to various concentrations of the test compound [following the procedure of S. Harada et al., Science, 1985, 229, 563]. The MT-4 cells were allowed to proliferate for 5 d after which time the number of viable cells was quantified by a tetrazolium-based colorimetric method [described by R. Pauwels et al., Journal of Virology Methods, 1988, 20, 309.]

A further series deals with MT-4 cells. As to the kind of experiment: Cytotoxicity in MT-4 cells, tetrazolium viability. The format is cell-based. The conditions noted are these: 5 d, printed in HIV-2 line, read-out: av CC50.
Source text: as §2

The nature of series [1]: Cytotoxicity in MT-4 cells, tetrazolium viability. Conditions: human, printed in HIV-1 line, read-out: av CC50. The format is cell-based.
Source text: as §2

Another series concerns HIV-1 (IIIB). Briefly: Anti-HIV activity in MT-4 cells, tetrazolium viability, HIV-1. The format is cell-based. Conditions: Human immunodeficiency virus 1, MT4, 120 h, 5 d, read-out: av IC50.
Source text: as §2

The target in a further series is T1, CXCR4 receptor (Homo sapiens, UniProt P61073).
T1 construct: endogenous in cells; host or cells: Jurkat cells
As to the kind of experiment: Binding of rhodamine-tagged macrocycles to jurkat cells, flow cytometry. Conditions: FIG. 1 / FIG. 2. The procedure:
Two monocyclam compounds were tagged with rhodamine and specific binding to the CXCR4 receptor was analysed by incubating with jurkat cells. Cell samples were analysed by flow cytometry as described in example 8, below.
as §1

Bounds are passed on as bounds.

From patent US8034800B2, “Antiviral macrocycle derivatives and metal complexes, incorporating bridged macrocycles” (University of Hull, priority 2004, dated 2011) come the findings set out here.

Sequence of CXCR4 chemokine receptor (P61073 whole entry): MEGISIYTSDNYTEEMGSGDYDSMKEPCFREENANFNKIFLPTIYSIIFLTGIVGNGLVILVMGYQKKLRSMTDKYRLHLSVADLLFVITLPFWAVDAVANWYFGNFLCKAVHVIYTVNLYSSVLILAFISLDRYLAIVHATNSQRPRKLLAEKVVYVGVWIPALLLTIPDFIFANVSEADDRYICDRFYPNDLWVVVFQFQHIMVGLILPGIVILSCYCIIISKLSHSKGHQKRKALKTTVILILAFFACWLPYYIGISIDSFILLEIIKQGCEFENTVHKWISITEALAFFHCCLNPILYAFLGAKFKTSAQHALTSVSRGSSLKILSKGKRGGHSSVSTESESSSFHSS
T1 sequence (P61073 whole entry): as above

As usually defined, the IC50 is the concentration at which inhibition is half-maximal. A word on the IC90: it is the concentration at which the effect reaches the 90% level. The low end stands for an effect from little substance, the high end for a need for much substance. One may read the CC50 as the concentration giving 50% cytotoxicity. Take `c1cc(CN2CCCN3CCN(CCCNCC2)CC3)ccc1CN1CCCN2CCN(CCCNCC1)CC2` [Compound 16]: the IC50 at CXCR4 chemokine receptor worked out at 17 µM; in the series on HIV-2 (ROD), 23.2 µM; in the series on HIV-1 (IIIB) it was 6.98 µM. At CXCR4 chemokine receptor, the IC90 is more than 17 µM. For the same molecule, the CC50 with MT-4 cells is more than 225 µM. In series [1], the CC50 at 5 d was more than 225 µM.
Turning to `CCN(CC)c1ccc2c(-c3ccc(NC(=S)Nc4ccc(CN5CCCN6CCN(CCCNCC5)CC6)cc4)cc3C(=O)O)c3ccc(=[N+](CC)CC)cc-3oc2c1` [Rhodamine-Bridged Macrocycle Conjugate], the “binding to the CXCR4 chemokine receptor (flow cytometry histogram)” value at CXCR4 receptor is “binding of the chelator to the CXCR4 chemokine receptor”.
